{"source": "patent US20240342138A1", "about": "“MICROTUBULE TARGETING AGENTS” (BPGbio, Inc., priority 2023, published 2024)", "key": {"tubulin": {"target": "T1, tubulin (Sus scrofa, UniProt P02550+P02554)", "T1 construct": "purchased Cytoskeleton Inc. BK006P", "T1 sequence (P02550 whole entry)": "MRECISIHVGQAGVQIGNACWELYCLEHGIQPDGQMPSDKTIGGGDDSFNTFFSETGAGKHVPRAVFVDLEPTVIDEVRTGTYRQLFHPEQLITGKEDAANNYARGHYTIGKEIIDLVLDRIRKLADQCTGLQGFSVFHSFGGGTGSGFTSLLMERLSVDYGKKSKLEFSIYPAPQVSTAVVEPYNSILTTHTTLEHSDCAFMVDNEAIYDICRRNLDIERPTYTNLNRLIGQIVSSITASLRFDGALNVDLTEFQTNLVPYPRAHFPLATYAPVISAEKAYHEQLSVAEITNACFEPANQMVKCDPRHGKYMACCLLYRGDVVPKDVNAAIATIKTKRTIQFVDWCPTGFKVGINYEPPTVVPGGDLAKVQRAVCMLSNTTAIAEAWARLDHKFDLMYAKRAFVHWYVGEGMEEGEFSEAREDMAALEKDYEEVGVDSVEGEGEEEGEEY", "T1 sequence (P02554 whole entry)": "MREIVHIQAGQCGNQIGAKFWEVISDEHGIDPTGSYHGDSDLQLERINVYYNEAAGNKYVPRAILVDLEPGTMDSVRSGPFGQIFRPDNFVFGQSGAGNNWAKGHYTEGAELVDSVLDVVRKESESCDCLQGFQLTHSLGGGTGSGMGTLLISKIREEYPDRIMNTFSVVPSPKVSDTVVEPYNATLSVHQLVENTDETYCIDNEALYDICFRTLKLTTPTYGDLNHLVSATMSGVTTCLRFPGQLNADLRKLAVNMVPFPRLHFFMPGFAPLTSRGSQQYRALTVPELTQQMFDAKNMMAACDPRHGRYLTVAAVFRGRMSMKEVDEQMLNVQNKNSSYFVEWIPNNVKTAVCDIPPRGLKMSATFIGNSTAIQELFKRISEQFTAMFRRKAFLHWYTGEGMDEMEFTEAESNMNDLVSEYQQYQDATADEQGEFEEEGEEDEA", "assay": "In vitro tubulin polymerization assay (OD based, absorbance 340 nm)", "format": "biochemical, Porcine", "conditions": "10 μM and 20 nM; FIG. 1; N=3", "description": "The protocol followed for tubulin polymerization is according to the manufacturer's protocol. The following components were diluted as follows: • A vial of lyophilized GTP was diluted in 100 μl of sterile water and made into 10 μl aliquots and stored at −80° C. • Tubulin was diluted to 10 mg/ml in buffers+GTP as recommended, flash frozen in liquid nitrogen and stored at −80° C. • Paclitaxel was diluted to 2 mM in DMSO\nThe half area 96-well plate provided by kit manufacturer was allowed to warm up to 37° C. for 30 mins in the Molecular Devices M5 plate reader. The Compound 1 and nocodazole were diluted in DMSO to a concentration of 2 mM, followed by dilution of these working stocks in the General Tubulin Buffer (GTB-provided in the kit) to a 10× the final well concentration and final well volume of 10 μl. Same was done with the 2 mM Paclitaxel stock. Once the plate was warmed up, the compounds were added in duplicates to the wells. […] The plate was placed at 37° C. in the plate reader for 3 minutes. […] The experimental setup was as follows: • Absorbance read: 340 nm • Temperature: 37° C. • Shake: 5 s at medium speed prior to first read. • Read: The absorbance was read every 1 min for 90 minutes (total 91 reads).\nThe values were normalized to the first read by designating the first read as ‘0’ subtracting the value of the first read from the following reads. […]"}, "[1]": {"assay": "Blood brain barrier permeability (PVDF membrane coated with porcine brain polar lipid extract)", "format": "in vitro ADME", "description": "Preparation of Donor Solution a) 0.2 mM working solution was prepared by diluting 10 mM stock solution with DMSO. b) 10 μM donor solution (5% DMSO) was prepared by diluting 20 μL of working solution with 380 μL PBS. 2) 150 μL of 10 μM donor solutions to each well of the donor plate, whose PVDF membrane was precoated with 5 μL of 1% brain polar lipid extract (Porcine)/dodecane mixture. Duplicates were prepared. 3) 300 μL of PBS was added to each well of the PTFE acceptor plate. 4) The donor plate and acceptor plate were combined together and incubated for 4h at room temperature with shaking at 300 rpm. 5) Preparation of TO sample: 20 μL donor solution was transferred to new well followed by the addition of 250 μL PBS (DF: 13.5), 130 μL ACN (containing internal standard) as TO sample. 6) Preparation of acceptor sample: The plate was removed from incubator. 270 μL solution was transferred from each acceptor well and mixed with 130 μL ACN (containing internal standard) as acceptor sample. 7) Preparation of donor sample: […] was transferred from each donor well and mixed with 250 μL PBS (DF: 13.5), 130 μL ACN (containing internal standard) as donor sample. 8) Acceptor samples and donor samples were all analyzed by LC/MS/MS."}, "DU145 cells": {"test_system": "DU145 cells", "assay": "In vitro potency, ATPlite 1Step (NTRC Oncolines)", "format": "cell-based", "conditions": "Homo sapiens, DU-145", "description": "FIG. 12A-12E show the efficacy of Compound lin a prostate cancer xenograft model (DU145). A) In vitro potency of Compound 1 in DU145 cells as evaluated by ATPlite 1Step™ Perkin Elmer (performed by NTRC Oncolines). B) DU145 cells were implanted subcutaneously in nude mice and tumors were allowed to grow to a volume of 210 mm^3 followed by randomization of animals into three (3) groups (vehicle control, 75 mg/kg, 150 mg/kg Compound 1) with 12 animals per group. A Compound 1 solid dispersion was prepared prior to each dosing and administered by oral gavage two times a day (BID). Mean tumor volume of each group over time and the growth of tumor in each individual animal was graphed. For each individual animal of […] group TGI (%) was calculated based on the tumor growth inhibition of individual tumor at each given day of the study compared to the average of the group for that given day of the study. P-values were calculated using two-tailed distribution and two-sample equal variance (homoscedastic) for each group treated with Compound 1 for each given day of the study in reference to vehicle control. NS p>0.05; *p≤0.05; **p≤0.01; ***p p≤0.001; **** p≤0.0001. […] The level of two biomarkers, pHH3 and CCNB1 in each tissue was measured and graphed as the Min-to-Max plot and scatter plot of the level of each biomarker. […]"}}}
{"smiles": "COc1ccccc1-c1nc(CNC(=O)c2ccccc2OC(F)F)n[nH]1", "note": "[Compound 1, 2-(difluoromethoxy)-N-[[5-(2-methoxyphenyl)-1H-1,2,4-triazol-3-yl]methyl]benzamide]", "values": [{"measurement": "Microtubule polymerization (absorbance at 340 nm, Vmax)", "setting": "tubulin", "value": "inhibits microtubule polymerization"}, {"measurement": "Permeability", "setting": "[1]; 10 μM, 4 h", "value": "highly permeable and High"}, {"measurement": "Papp at 4 h, 10 μM", "setting": "[1]; PAMPA, read-out: Mean Pe", "value": 6.76, "unit": "×10⁻⁶ cm/s"}, {"measurement": "recovery at 4 h, 10 μM", "setting": "[1]; pig, not told", "value": 85.8, "unit": "%"}, {"measurement": "IC50", "setting": "DU145 cells; DU145", "value": 77, "unit": "nM"}, {"measurement": "Emax", "setting": "DU145 cells; DU145, in vitro, read-out: Maximum effect (%)", "value": 91, "unit": "%"}]}
